{"source": "paper PMC8042910", "about": "“Adiponectin-mimetic novel nonapeptide rescues aberrant neuronal metabolic-associated memory deficits in Alzheimer’s disease” (Molecular Neurodegeneration, 2021)", "tested_on": "p-IRS-1 and p-PI3K/Akt/GSK3β (Ser 9) pathways", "test": "Insulin resistance and downstream insulin signaling in APPswe/ind-overexpressing SH-SY5Y cells, immunoblot", "assay_type": "cell-based, human", "settings": "APPswe/ind SH-SY5YIR, Comp. C 10 μM with Os-pep 10 μM", "protocol": "Human neuroblastoma SH-SY5Y cells were seeded (in 6-well culture plates for immunoblotting and in chamber slides for immunofluorescence) in DMEM (Dulbecco’s modified Eagle medium) containing 10% fetal bovine serum (FBS) and 1% antibiotics (penicillin-streptomycin) and incubated at 37 °C in humidified air containing 5% CO2. Once the cells reached 70–80% confluence, the cells were transfected using the pCAX vector containing the APPswe/ind gene using Lipofectamine 3000 (Life Technologies) according to the provider’s protocols. AdipoR1 siRNA (h) (SC-60123) and AMPK siRNA (h) (SC-45312) (Santa Cruz Biotechnology, Inc.) were used at a concentration of 10 μM per transfection and expressed for 72 h according to the manufacturer’s protocol (Santa Cruz Biotechnology, Inc.). A negative siRNA (Ambion, Thermo Fisher Scientific) was used as a control. Seventy-two hours after the transfections, the cells were exposed to Os-pep (10 μM) for 12 h and then subjected to immunoblotting and immunofluorescence analyses.\nHuman neuroblastoma SH-SY5Y cells were treated with 1 µM of insulin for 48 h to produce intrinsic insulin-resistant human neuroblastoma (SH-SY5YIR) cells. After 48 h, SH-SY5YIR cells were overexpressed with human APPswe/ind and subjected with AdipoR1 siRNA which further exposed to 10 nM insulin, Os-pep (10 µM) or compound C (10 µM) for 12 h, and then cell lysates were collected and proceeded accordingly for immunoblotting and ELISA.", "data": [{"molecule": "c1cc(-c2cnn3cc(-c4ccc(OCCN5CCCCC5)cc4)cnc23)ccn1", "note": "[Comp. C, reference compound]", "values": [{"measurement": "effect on insulin-sensitizing effect of Os-pep", "value": "inhibited the insulin-sensitizing effect of Os-pep"}]}]}
